From patent US20130172308A1, “ANTIMICROBIAL AGENTS” (John Grant COLLINS, priority 2011, published 2013) come the findings set out here.

What is called logP is a log measure of how a compound divides between an organic and an aqueous phase. A low value points to a more hydrophilic compound. In general, IC50 refers to the concentration needed to halve the response being measured. In general, IC90 refers to the concentration needed for an effect of 90%.

The subject of one data set is S. aureus ATCC 25923. Description: MIC determination, broth micro-dilution (CAMHB). The class given is cell-based, Staphylococcus aureus. To be noted: Table 4; CAMHB; all ΔΔ- enantiomers. A digest of the protocol:
(§1)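 Ruthenium complexes two-fold serially diluted in cation-adjusted Mueller Hinton broth, final range 0.25–128 […], with equal volume of bacterial suspension; duplicate determinations, gentamicin as positive control. Plates incubated 37° C for 24 h; MIC by standard micro-dilution.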

In data set [1] the test system is MRSA (a wild clinical strain from the JCU culture collection). As to the kind of experiment: MIC determination, broth micro-dilution (CAMHB). The class given is cell-based, methicillin-resistant S. aureus. To be noted: Table 4; CAMHB; all ΔΔ- enantiomers. A digest of the protocol: as §1
On the technique in general: Broth dilution looks for growth in wells or tubes with falling amounts of substance.

In another data set the test system is E. coli ATCC 25922. As to the kind of experiment: MIC determination, broth micro-dilution (CAMHB). The class given is cell-based, Escherichia coli. To be noted: Table 4; CAMHB; all ΔΔ- enantiomers. A digest of the protocol:
as §1

For a further data set, the system named is P. aeruginosa ATCC 27853. Description: MIC determination, broth micro-dilution (CAMHB). The class given is cell-based, Pseudomonas aeruginosa. To be noted: Table 4; CAMHB; all ΔΔ- enantiomers. A digest of the protocol: as §1
The format of data set [2] is physicochemical. To be noted: pH 7.4. The method, then: The primary difference between the members of the Rubbn family of complexes is the number of methylene groups in the flexible linking chain. […] Lipophilicity is a significant factor affecting the biological activity of most therapeutic compounds, as it relates to the capacity of the drug to penetrate through the cell membrane. The standard octanol-water partition coefficient (logP) was determined for the Rubbn series (F. Lombardo, B. Faller, M. Shalaeva, I. Tetko and S. Tilton, Methods and Principles in Medicinal Chemistry, 2008, 37, 407) parent model mononuclear species ([Ru(phen)2(Me2bpy)]^2+) and the trinuclear and tetranuclear complexes.
The partition coefficients (logP) were measured using the shake flask technique: each ruthenium complex (at both 0.05 and 0.1 mM) was dissolved in the water phase (0.2 M Na2HPO4—NaH2PO4 buffer, pH=7.4) and an equivalent volume of n-octanol was added.
The two phases were mutually saturated by shaking overnight at ambient temperature and then were allowed to separate on standing. The concentration of the metal complex in each phase was determined spectrophotometrically at l=450 nm.

For a further data set, the system named is S. aureus. Description: Minimum Bactericidal Concentration (MBC) assay (CAMHB). The class given is cell-based, Staphylococcus aureus. As to conditions: Table 4, all ΔΔ- enantiomers. The protocol:
(§2) Further MIC assays and Minimum Bactericidal Concentration (MBC) assays were conducted against Gram-positive and Gram-negative bacterial strains using symmetric and non-symmetric, inert and labile complexes.

The subject of a further data set is MRSA. The data set is described as above. Format: cell-based, methicillin-resistant S. aureus. As to conditions: Table 4, all ΔΔ- enantiomers. The method, then: as §2
The test system of a further data set is E. coli. The description is as above. Format: cell-based, Escherichia coli. To be noted: Table 4, all ΔΔ- enantiomers. The method, then: as §2
For a further data set, the system named is P. aeruginosa. The data set is described as above. The class given is cell-based, Pseudomonas aeruginosa. To be noted: Table 4, all ΔΔ- enantiomers. The protocol: as §2
Data set [3] has as its system Plasmodium falciparum strain D6. As to the kind of experiment: [3H]-hypoxanthine growth inhibition assay. Format: cell-based. As to conditions: mean (SD), 96 h exposure, chloroquine-sensitive strain; for IC50: read-out: IC50 D6; for IC90: read-out: IC90 D6. The protocol:
(§3) The in vitro antimalarial activities of two of the dinuclear ruthenium(II) complexes and chloroquine were assessed by exposing P. falciparum strains to ten serially diluted two-fold concentrations of each compound. Parasite growth was measured by uptake of tritiated [^3H]-hypoxanthine into newly synthesised parasitic DNA.
(§4) The [^3H]-hypoxanthine growth inhibition assay (Desjardins et al., 1979 Antimicrobial Agents Chemother 16: 710-718) was used to evaluate the in vitro antimalarial activity of the compounds. Briefly, synchronised parasite cultures (>90% rings, 6 to 8 h post invasion) in [^3H]-RPMI-LPLF complete medium with 0.5% parasitaemia and 2% haematocrit were exposed to the compounds at ten two-fold concentrations, ranging from 10,000 to 20 nM in 96-well microtitre plates. Chloroquine was used as a reference drug. Uninfected RBCs at 2% haematocrit were used as background controls. For the 96 h exposure period, the plates were incubated in the gas mixture at 37° C. for approximately 48 h, followed by the addition of 0.2 μCi of ^3H-hypoxanthine (GE Healthcare, Amersham) in [^3H]-RPMI-1640-LPLF to each well and a further 48 h of incubation and then frozen at −20° C. Plates were thawed and harvested using Tomtech Harvester 96 Mach III and radioactive counts were obtained using Wallac TriLux 1450 Microbeta Liquid Scintillation Counter (Perkin Elmer, USA). All assays were performed in triplicate for each strain and at least on two separate occasions.
(§5) Tritiated hypoxanthine uptake data were analysed in Graphpad Prism V5.0 software (GraphPad Software Inc. USA). The concentrations of the dinuclear ruthenium(II) complexes and chloroquine were transformed into logarithmic values. After subtracting the background values, the data from drug-treated wells were normalised against drug-free control wells. Non-linear regression analysis was carried out of the compound's concentration versus parasitic hypoxanthine incorporation. The in vitro antimalarial activity of the compound is defined as inhibitory concentrations (IC50) and (IC90) that cause 50% and 90% inhibition of parasite growth as determined by measuring [^3H]-hypoxanthine incorporation.

Data set [4] deals with Plasmodium falciparum strain W2. As to the kind of experiment: [3H]-hypoxanthine growth inhibition assay. Format: cell-based. To be noted: mean (SD), 96 h exposure, chloroquine-resistant strain; for IC50: read-out: IC50 W2; for IC90: read-out: IC90 W2. The protocol: as §3, §4, §5

With `Cc1ccnc(-c2cc(CCCCCCCCCCCCCCCCc3ccnc(-c4cc(C)ccn4)c3)ccn2)c1.[Cl-].[Cl-].[Cl-].[Cl-].[Ru+2].[Ru+2].c1cnc2c(c1)ccc1cccnc12.c1cnc2c(c1)ccc1cccnc12.c1cnc2c(c1)ccc1cccnc12.c1cnc2c(c1)ccc1cccnc12` [Rubb16, [{Ru(phen)2}2(μ-bb16)]Cl4], the “MIC S. aureus” value against S. aureus ATCC 25923 is 1. Further, in data set [1], the “MIC MRSA” value worked out at 1. In the data set with E. coli ATCC 25922, the “MIC E. coli” value was determined as 2. The “MIC P. aeruginosa” value against P. aeruginosa ATCC 27853 is given as 8. In data set [2], this compound displayed a logP of −1.9. Further, the MBC S. aureus in the data set on S. aureus was 1 µg/mL. In the data set on MRSA, this compound returned an MBC MRSA of 2 µg/mL. Also, the MBC E. coli against E. coli came to 2 µg/mL. The compound also registered an MBC P. aeruginosa in the data set on P. aeruginosa of 8 µg/mL. Besides, in data set [3], the 50% inhibitory concentration (IC50) amounted to 0.226 µM and the IC90 stood at 0.413 µM. Also, in data set [4], the IC50 was 0.289 µM and the concentration for an effect of 90% (IC90) turned out to be 0.444 µM.
For [{Ru(phen)2}2(μ-bb12)] [Rubb12], in the data set with S. aureus ATCC 25923, the “MIC S. aureus” value is listed as 1. Moreover, the “MIC MRSA” value in data set [1] came out at 1. The “MIC E. coli” value against E. coli ATCC 25922 came to 2. Moreover, the “MIC P. aeruginosa” value against P. aeruginosa ATCC 27853 was found to be 16. The compound further came in with a logP in data set [2] of −2.7. Besides, the MBC S. aureus against S. aureus is 2 µg/mL. This compound also had an MBC MRSA against MRSA of 2 µg/mL. In addition, the MBC E. coli in the data set with E. coli came out at 2 µg/mL. The compound also registered an MBC P. aeruginosa against P. aeruginosa of 32 µg/mL. Also, the IC50 in [3] is 0.733 µM; in [4], 0.739 µM. Moreover, the IC90 in data set [3] is 1.25 µM; in data set [4] it was 1.4 µM.
